PMC8694812 (RSC Advances, 2021)

Legend:
[1] = test system: A549 cells; assay: MTT cell viability of A549 cells, dark and 660 nm LED irradiation; type: cell-based, human; conditions: 24 hours, 660 nm 30 min
[2] = test system: BEAS-2B cells; assay: MTT cell viability of BEAS-2B cells, dark and 660 nm LED irradiation; type: cell-based, human; conditions: Eu bis up to 50 μM, Lu bis above 2.5 μM, ZnPc 0.25 μM or above
[3] = ZnPc standard, cited from earlier work
[4] = ZnPc standard, cited from earlier work; remark: listed apart in the source
[5] = DMSO, ZnPc standard; cited from earlier work

## [Zn+2].c1ccc2c(c1)-c1nc-2nc2[n-]c(nc3nc([n-]c4nc(n1)-c1ccccc1-4)-c1ccccc1-3)c1ccccc21 [ZnPc, unsubstituted zinc(II)phthalocyanine]
[1]
  effect of light irradiation on viability/toxicity: high toxicity in the sub-μM range
[2]
  effect of light irradiation on viability: reduced the viability
[3]; fraction
  Direct ΦΔ in THF: 0.530 (ref. [66])
[3]; singlet oxygen quantum yield, THF
  ΦΔ (%) Direct in THF: 53%
[4]; fraction
  Indirect ΦΔ in DMSO: 0.670 (ref. [65])
[4]; singlet oxygen quantum yield, DMSO
  ΦΔ (%) Indirect in DMSO: 67%
[5]
  ΦF (fluorescence quantum yield): 0.180 (ref. [64])
